Experimental data from ChEMBL document CHEMBL4715869, “N-(Pyrimidin-2-yl)-1,2,3,4-tetrahydroisoquinolin-6-amine Derivatives as Selective Janus Kinase 2 Inhibitors for the Treatment of Myeloproliferative Neoplasms” (J Med Chem, 2020).
One block for each compound: values may come before it.

Tests used:
[1] = target: T1, Tyrosine-protein kinase JAK3 (Homo sapiens, UniProt P52333); assay: Inhibition of recombinant human JAK3 (781 to end residues) using GGEEEEYFELVKKKK as substrate measured after 40 mins in presence of [gamm33P]ATP by scintillation counting method
T1 sequence (P52333 whole entry): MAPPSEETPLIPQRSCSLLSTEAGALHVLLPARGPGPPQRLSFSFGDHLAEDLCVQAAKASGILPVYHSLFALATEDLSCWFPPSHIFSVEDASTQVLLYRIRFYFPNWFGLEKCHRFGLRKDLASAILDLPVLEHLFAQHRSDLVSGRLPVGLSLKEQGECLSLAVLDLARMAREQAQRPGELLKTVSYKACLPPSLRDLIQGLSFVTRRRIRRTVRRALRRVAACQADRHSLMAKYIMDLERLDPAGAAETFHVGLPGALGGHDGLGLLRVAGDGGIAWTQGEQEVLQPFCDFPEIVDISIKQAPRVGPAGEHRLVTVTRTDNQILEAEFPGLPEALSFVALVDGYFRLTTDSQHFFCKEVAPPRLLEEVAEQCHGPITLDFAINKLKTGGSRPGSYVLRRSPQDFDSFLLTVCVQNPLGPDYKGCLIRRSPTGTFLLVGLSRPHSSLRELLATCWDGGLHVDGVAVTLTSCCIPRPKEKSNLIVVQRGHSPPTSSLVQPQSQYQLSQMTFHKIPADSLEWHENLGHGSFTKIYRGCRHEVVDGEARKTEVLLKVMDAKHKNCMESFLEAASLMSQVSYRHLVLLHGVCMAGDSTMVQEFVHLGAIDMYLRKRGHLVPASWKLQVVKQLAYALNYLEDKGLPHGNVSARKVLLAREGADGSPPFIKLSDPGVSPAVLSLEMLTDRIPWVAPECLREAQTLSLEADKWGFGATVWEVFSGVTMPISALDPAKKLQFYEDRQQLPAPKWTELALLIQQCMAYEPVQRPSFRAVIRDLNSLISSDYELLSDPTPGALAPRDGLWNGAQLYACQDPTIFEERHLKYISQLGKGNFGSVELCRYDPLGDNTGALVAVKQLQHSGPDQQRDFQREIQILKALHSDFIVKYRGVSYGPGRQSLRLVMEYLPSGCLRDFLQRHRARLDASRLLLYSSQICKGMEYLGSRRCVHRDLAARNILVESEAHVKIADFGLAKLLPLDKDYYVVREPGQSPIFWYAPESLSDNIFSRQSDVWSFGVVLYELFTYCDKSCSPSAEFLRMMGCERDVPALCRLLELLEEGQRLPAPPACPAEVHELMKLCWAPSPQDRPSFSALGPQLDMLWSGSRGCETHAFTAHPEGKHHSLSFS

[2] = target: Non-receptor tyrosine-protein kinase TYK2 (Homo sapiens, UniProt P29597); assay: Inhibition of recombinant human TYK2 (875 to end residues) using GGMEDIYFEFMGGKKK as substrate incubated for 40 mins in presence of [gamma33P]ATP by scintillation counting based radiometry assay
Non-receptor tyrosine-protein kinase TYK2, sequence (P29597 whole entry): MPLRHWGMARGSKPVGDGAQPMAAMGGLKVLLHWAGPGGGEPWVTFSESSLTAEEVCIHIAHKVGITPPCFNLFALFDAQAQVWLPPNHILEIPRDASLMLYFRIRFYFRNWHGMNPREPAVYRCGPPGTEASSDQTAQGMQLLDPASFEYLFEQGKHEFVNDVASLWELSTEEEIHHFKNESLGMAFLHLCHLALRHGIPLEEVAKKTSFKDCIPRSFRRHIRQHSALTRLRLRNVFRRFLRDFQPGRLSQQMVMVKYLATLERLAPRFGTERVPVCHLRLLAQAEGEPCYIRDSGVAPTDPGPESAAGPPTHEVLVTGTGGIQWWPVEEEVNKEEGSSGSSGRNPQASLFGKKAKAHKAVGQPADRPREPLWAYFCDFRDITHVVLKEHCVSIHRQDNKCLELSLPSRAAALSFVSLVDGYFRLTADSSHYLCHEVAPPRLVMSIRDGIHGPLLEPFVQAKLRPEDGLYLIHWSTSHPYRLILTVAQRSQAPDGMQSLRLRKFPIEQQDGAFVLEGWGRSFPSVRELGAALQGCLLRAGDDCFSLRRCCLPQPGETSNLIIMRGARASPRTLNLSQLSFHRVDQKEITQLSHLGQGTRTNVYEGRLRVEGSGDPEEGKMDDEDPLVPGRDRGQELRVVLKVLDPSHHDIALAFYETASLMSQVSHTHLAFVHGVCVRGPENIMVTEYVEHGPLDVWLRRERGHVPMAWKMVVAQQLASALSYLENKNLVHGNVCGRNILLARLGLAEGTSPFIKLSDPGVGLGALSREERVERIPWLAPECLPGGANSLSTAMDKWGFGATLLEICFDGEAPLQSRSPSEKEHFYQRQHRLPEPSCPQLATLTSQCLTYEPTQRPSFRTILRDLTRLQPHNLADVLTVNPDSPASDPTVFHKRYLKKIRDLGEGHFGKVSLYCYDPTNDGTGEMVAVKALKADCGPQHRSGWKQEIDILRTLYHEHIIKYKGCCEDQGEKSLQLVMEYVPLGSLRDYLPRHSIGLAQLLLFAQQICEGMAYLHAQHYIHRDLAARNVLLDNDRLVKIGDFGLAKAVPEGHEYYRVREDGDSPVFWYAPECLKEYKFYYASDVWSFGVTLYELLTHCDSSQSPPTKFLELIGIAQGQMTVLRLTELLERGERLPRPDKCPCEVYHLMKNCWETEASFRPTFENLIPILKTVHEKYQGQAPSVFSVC

[3] = Selectivity index, ratio of IC50 for inhibition of recombinant human FLT3 D835Y mutant (564 to end residues) to IC50 for inhibition of recombinant human JAK2 (808 to end residues)
[4] = target: Tyrosine-protein kinase JAK1 (Homo sapiens, UniProt P23458); assay: Inhibition of human JAK1 (866 to end residues) using GEEPLYWSFPAKKK as substrate after 40 mins by [gamma-33ATP] radiometric assay
Tyrosine-protein kinase JAK1, sequence (P23458 whole entry): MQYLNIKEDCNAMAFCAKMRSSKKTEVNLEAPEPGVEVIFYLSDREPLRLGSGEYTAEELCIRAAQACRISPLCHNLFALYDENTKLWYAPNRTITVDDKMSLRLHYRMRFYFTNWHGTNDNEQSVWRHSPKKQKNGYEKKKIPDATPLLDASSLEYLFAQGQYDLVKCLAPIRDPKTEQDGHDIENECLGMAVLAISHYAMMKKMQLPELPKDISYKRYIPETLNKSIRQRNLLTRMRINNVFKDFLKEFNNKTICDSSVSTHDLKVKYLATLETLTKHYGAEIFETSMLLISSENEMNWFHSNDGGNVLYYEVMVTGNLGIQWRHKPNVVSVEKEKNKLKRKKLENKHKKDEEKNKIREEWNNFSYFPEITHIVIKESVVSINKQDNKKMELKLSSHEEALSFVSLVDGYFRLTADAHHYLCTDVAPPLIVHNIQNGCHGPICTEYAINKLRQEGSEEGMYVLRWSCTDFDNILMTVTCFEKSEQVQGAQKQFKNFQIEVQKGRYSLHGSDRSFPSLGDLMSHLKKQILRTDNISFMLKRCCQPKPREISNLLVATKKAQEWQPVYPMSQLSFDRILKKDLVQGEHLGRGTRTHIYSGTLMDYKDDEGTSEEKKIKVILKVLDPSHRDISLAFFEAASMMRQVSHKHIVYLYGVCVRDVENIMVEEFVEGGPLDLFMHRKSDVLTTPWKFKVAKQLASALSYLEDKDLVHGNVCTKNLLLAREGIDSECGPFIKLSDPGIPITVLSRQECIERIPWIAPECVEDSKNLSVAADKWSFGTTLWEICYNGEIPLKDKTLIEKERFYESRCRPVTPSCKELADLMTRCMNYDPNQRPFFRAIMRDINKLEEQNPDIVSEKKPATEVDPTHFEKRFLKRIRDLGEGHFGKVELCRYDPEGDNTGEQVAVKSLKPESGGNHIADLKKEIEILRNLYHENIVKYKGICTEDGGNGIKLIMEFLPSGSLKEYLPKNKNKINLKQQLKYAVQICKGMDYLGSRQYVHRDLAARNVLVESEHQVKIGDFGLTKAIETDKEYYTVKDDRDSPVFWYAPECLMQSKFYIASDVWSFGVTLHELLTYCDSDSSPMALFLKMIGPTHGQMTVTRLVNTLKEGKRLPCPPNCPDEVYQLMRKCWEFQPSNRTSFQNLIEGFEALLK

Homo sapiens = species on record: Homo sapiens; assay: Selectivity index, ratio of IC50 for inhibition of FLT3 ITD mutant in human MOLM13 cells to IC50 for inhibition of JAK2 V617F mutant in human SET-2 cells; assay type: cell-based
[5] = target: Tyrosine-protein kinase JAK2 (Homo sapiens, UniProt O60674); assay: Inhibition of recombinant human JAK2 (808 to end residues) KTFCGTPEYLAPEVRREPRILSEEEQEMFRDFDYIADWC as substrate measured after 40 mins in presence of [gamm33P]ATP by scintillation counting method
Tyrosine-protein kinase JAK2, sequence (O60674 whole entry): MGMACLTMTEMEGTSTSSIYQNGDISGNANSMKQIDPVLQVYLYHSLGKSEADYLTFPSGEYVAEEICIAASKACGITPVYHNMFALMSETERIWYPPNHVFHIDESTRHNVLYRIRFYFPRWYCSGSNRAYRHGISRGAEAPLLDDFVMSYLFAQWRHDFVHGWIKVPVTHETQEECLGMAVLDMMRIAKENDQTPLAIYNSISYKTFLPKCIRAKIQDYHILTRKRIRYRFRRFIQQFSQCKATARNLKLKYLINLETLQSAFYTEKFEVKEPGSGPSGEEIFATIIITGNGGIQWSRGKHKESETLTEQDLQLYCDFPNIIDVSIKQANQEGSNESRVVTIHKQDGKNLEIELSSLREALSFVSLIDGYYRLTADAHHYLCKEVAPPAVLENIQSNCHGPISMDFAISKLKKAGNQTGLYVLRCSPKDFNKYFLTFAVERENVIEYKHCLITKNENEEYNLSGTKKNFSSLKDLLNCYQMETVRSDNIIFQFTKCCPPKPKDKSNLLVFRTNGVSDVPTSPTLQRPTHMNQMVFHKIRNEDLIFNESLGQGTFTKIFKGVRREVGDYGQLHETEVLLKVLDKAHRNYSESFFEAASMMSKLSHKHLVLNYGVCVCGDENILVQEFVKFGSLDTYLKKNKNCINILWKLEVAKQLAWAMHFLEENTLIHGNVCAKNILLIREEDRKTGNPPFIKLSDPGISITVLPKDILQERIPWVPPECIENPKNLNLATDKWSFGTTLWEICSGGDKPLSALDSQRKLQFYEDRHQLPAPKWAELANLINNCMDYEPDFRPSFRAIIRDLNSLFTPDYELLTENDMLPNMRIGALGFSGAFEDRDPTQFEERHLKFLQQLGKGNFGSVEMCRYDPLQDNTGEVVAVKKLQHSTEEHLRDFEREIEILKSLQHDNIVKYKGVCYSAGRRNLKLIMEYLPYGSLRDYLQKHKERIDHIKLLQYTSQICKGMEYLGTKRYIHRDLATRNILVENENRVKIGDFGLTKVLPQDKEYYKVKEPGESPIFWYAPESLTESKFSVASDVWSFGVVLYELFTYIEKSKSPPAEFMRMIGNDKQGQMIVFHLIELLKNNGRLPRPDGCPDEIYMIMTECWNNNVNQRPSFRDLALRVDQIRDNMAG

[6] = system: Receptor-type tyrosine-protein kinase FLT3 (Homo sapiens), P36888 [UNDEFINED MUTATION]; assay: Inhibition of FLT3 ITD mutant in human MOLM13 cells assessed as residual activity at 100 nM relative to control; assay type: cell-based; conditions: MOLM-13
[7] = Selectivity index, ratio of IC50 for inhibition of human JAK1 (866 to end residues) to IC50 for inhibition of recombinant human JAK2 (808 to end residues)
[8] = Selectivity index, ratio of IC50 for inhibition of recombinant human TYK2 (875 to end residues) to IC50 for inhibition of recombinant human JAK2 (808 to end residues)
[9] = target: Receptor-type tyrosine-protein kinase FLT3 (Homo sapiens, UniProt P36888, D835Y); assay: Inhibition of recombinant human FLT3 D835Y mutant (564 to end residues) using EAIYAAPFAKKK as substrate at 40 mins in presence of [gamma-33ATP] by scintillation counting based radiometry assay
[10] = Selectivity index, ratio of IC50 for inhibition of recombinant human JAK3 (781 to end residues) to IC50 for inhibition of recombinant human JAK2 (808 to end residues)
L02 = assay: Cytotoxicity against human L02 cells assessed as reduction in cell viability incubated for 72 hrs by MTT assay; assay type: cell-based; conditions: L02, 72 h
Vero = assay: Cytotoxicity against African green monkey Vero cells assessed as reduction in cell viability incubated for 72 hrs by MTT assay; assay type: cell-based; conditions: Chlorocebus sabaeus
[11] = Cytotoxicity against rat H9c2(2-1) cells assessed as reduction in cell viability incubated for 72 hrs by MTT assay; assay type: cell-based; conditions: H9c2, 72 h

IC50 [1]: 147 nM
IC50 [2]: 45 nM
Ratio IC50 [3]: 2.5
IC50 [4]: 91 nM
IC50 [5]: 9 nM
Activity [6]: 52%
Ratio IC50 [7]: 10
Ratio IC50 [8]: 5
IC50 [9]: 23 nM
Ratio IC50 [10]: 16
SMILES: Cc1cnc(Nc2ccc3c(c2)CN(C(=O)/C=C/CN(C)C)CC3)nc1-c1cnn(C(C)C)c1
Ratio IC50 (Homo sapiens): 29.8

Activity [6]: 67%
SMILES: C=CCN1CCc2cc(Nc3ncc(C)c(-c4cnn(C(C)C)c4)n3)ccc2C1
Ratio IC50 (Homo sapiens): 3

Activity [6]: 79%
SMILES: C#CCN1CCc2cc(Nc3ncc(C)c(-c4cnn(C(C)C)c4)n3)ccc2C1

Activity [6]: 79%
SMILES: Cc1cnc(Nc2ccc3c(c2)CCN3CCO)nc1-c1cnn(C(C)C)c1
Ratio IC50 (Homo sapiens): 0.54

SMILES: Cc1cnc(Nc2ccc3c(c2)CCN(C(=O)CCCN(C)C)C3)nc1-c1cnn(C(C)C)c1
Ratio IC50 (Homo sapiens): 1.5

Activity [6]: 43%
SMILES: CC(C)n1cc(-c2nc(Nc3ccc4c(c3)CCN(CCO)C4)ncc2F)cn1
Ratio IC50 (Homo sapiens): 0.84

SMILES: Cc1cnc(Nc2cc3c(cc2F)CN(CCO)CC3)nc1-c1cnn(C(C)C)c1
Ratio IC50 (Homo sapiens): > 1.2

IC50 [1]: 50 nM
IC50 [2]: 100 nM
Ratio IC50 [3]: 10
IC50 [4]: 60 nM
IC50 [5]: 3 nM
Activity [6]: 55%
Ratio IC50 [7]: 20
Ratio IC50 [8]: 33.3
IC50 [9]: 30 nM
Ratio IC50 [10]: 16.6
SMILES: Cc1ccc(C(=O)/C=C/C(=O)N2CCc3cc(Nc4ncc(C)c(-c5cnn(C(C)C)c5)n4)ccc3C2)cc1
IC50 (L02): 2660 nM
Ratio IC50 (Homo sapiens): 51.6
IC50 (Vero): 1050 nM
IC50 [11]: 1430 nM

Activity [6]: 67%
SMILES: Cc1cnc(Nc2ccc3c(c2)CN(CCO)C3)nc1-c1cnn(C(C)C)c1

Activity [6]: 51%
SMILES: Cc1cnc(Nc2ccc3c(c2)CN(CC#N)CC3)nc1-c1cnn(C(C)C)c1
Ratio IC50 (Homo sapiens): 4.5

Activity [6]: 62%
SMILES: Cc1cnc(Nc2ccc3c(c2)CCN(CCCO)C3)nc1-c1cnn(C(C)C)c1
Ratio IC50 (Homo sapiens): 3.4

Activity [6]: 88%
SMILES: Cc1cnc(Nc2ccc3c(n2)CCN(CCCO)C3)nc1-c1cnn(C(C)C)c1
Ratio IC50 (Homo sapiens): 1.1

Activity [6]: 44%
SMILES: CC(C)n1cc(-c2nc(Nc3ccc4c(c3)CCN(CCCO)C4)ncc2F)cn1
Ratio IC50 (Homo sapiens): 1.4

Activity [6]: 42%
SMILES: CC(C)n1cc(-c2nc(Nc3ccc4c(c3)CCN(CCCCCO)C4)ncc2F)cn1
Ratio IC50 (Homo sapiens): 0.72

Activity [6]: 66%
SMILES: CCN(CC)C(=O)/C=C/CN1CCc2cc(Nc3ncc(C)c(-c4cnn(C(C)C)c4)n3)ccc2C1
Ratio IC50 (Homo sapiens): 2

Activity [6]: 43%
SMILES: COC(=O)/C=C/CN1CCc2ccc(Nc3ncc(C)c(-c4cnn(C(C)C)c4)n3)cc2C1
Ratio IC50 (Homo sapiens): 6

Activity [6]: 63%
SMILES: Cc1cnc(Nc2ccc3c(c2)CCN(CCCCCO)C3)nc1-c1cnn(C(C)C)c1

Activity [6]: 57%
SMILES: CCCCN1CCc2cc(Nc3ncc(C)c(-c4cnn(C(C)C)c4)n3)ccc2C1
Ratio IC50 (Homo sapiens): 1.3

Activity [6]: 78%
SMILES: Cc1cnc(Nc2ccc3c(c2)CCN(C/C=C/C(=O)O)C3)nc1-c1cnn(C(C)C)c1
Ratio IC50 (Homo sapiens): 2.5

SMILES: Cc1cnc(Nc2ccc3c(c2)CCN(C/C=C/C(=O)NC(C)(C)C)C3)nc1-c1cnn(C(C)C)c1
Ratio IC50 (Homo sapiens): 1.7

Activity [6]: 56%
SMILES: Cc1cnc(Nc2ccc3c(c2)CCN(CCCCO)C3)nc1-c1cnn(C(C)C)c1
Ratio IC50 (Homo sapiens): 3.3

SMILES: CCNC(=O)N1CCc2cc(Nc3ncc(C)c(-c4cnn(C(C)C)c4)n3)ccc2C1
Ratio IC50 (Homo sapiens): 0.45

IC50 [1]: 28 nM
IC50 [2]: 30 nM
Activity [6]: 59%
IC50 [9]: 18 nM
SMILES: Cc1ccc(C(=O)/C=C/C(=O)N2CCc3ccc(Nc4ncc(C)c(-c5cnn(C(C)C)c5)n4)cc3C2)cc1
IC50 (L02): 2030 nM
IC50 (Vero): 2470 nM
IC50 [11]: 1690 nM

IC50 [1]: 120 nM
IC50 [2]: 79 nM
Ratio IC50 [3]: 3.4
IC50 [4]: 47 nM
IC50 [5]: 10 nM
Activity [6]: 41%
Ratio IC50 [7]: 4.7
Ratio IC50 [8]: 7.9
IC50 [9]: 34 nM
Ratio IC50 [10]: 12
SMILES: Cc1cnc(Nc2ccc3c(c2)CCN(C(=O)/C=C/C(=O)c2ccccc2)C3)nc1-c1cnn(C(C)C)c1
Ratio IC50 (Homo sapiens): 8.8

Activity [6]: 40%
SMILES: CCOCCN1CCc2cc(Nc3ncc(C)c(-c4cnn(C(C)C)c4)n3)ccc2C1
Ratio IC50 (Homo sapiens): 1.7

Activity [6]: 35%
SMILES: Cc1cnc(Nc2ccc3c(c2)CCN(CCC#N)C3)nc1-c1cnn(C(C)C)c1
Ratio IC50 (Homo sapiens): 1.2

SMILES: Cc1cnc(Nc2ccc3c(c2)CCN(C/C=C/C(=O)NCCN2CCCCC2)C3)nc1-c1cnn(C(C)C)c1
Ratio IC50 (Homo sapiens): 3.8

IC50 [1]: 54 nM
IC50 [2]: 56 nM
Ratio IC50 [3]: 15.4
IC50 [4]: 43 nM
IC50 [5]: 7 nM
Activity [6]: 50%
Ratio IC50 [7]: 6.1
Ratio IC50 [8]: 8
IC50 [9]: 108 nM
Ratio IC50 [10]: 7.7
SMILES: Cc1cnc(Nc2ccc3c(c2)CCN(CC#N)C3)nc1-c1cnn(C(C)C)c1
Ratio IC50 (Homo sapiens): 8.8

SMILES: CCCNC(=O)N1CCc2cc(Nc3ncc(C)c(-c4cnn(C(C)C)c4)n3)ccc2C1
Ratio IC50 (Homo sapiens): 1.2

Activity [6]: 39%
SMILES: CC(C)n1cc(-c2nc(Nc3ccc4c(c3)CCN(C(=O)CO)C4)ncc2F)cn1
Ratio IC50 (Homo sapiens): 0.79

Activity [6]: 99%
SMILES: Cc1cnc(Nc2ccc3c(c2)CCN(C(=O)Nc2cccc(Cl)c2)C3)nc1-c1cnn(C(C)C)c1
Ratio IC50 (Homo sapiens): 0.6

Activity [6]: 85%
SMILES: CC#CCN1CCc2cc(Nc3ncc(C)c(-c4cnn(C(C)C)c4)n3)ccc2C1
Ratio IC50 (Homo sapiens): 2

Activity [6]: 66%
SMILES: Cc1cnc(Nc2ccc3c(c2)CCN(CCO)C3)nc1-c1cnn(C(C)C)c1
Ratio IC50 (Homo sapiens): 3.9

IC50 [1]: 89 nM
IC50 [2]: 52 nM
Ratio IC50 [3]: 8
IC50 [4]: 30 nM
IC50 [5]: 2 nM
Activity [6]: 47%
Ratio IC50 [7]: 15
Ratio IC50 [8]: 26
IC50 [9]: 16 nM
Ratio IC50 [10]: 44.5
SMILES: Cc1cnc(Nc2ccc3c(c2)CN(C(=O)/C=C/C(=O)c2ccccc2)CC3)nc1-c1cnn(C(C)C)c1
Ratio IC50 (Homo sapiens): 12.5

Activity [6]: 39%
SMILES: CC(C)n1cc(-c2nc(Nc3ccc4c(c3)CCN(CCCCO)C4)ncc2F)cn1
Ratio IC50 (Homo sapiens): 0.75

IC50 [1]: 77 nM
IC50 [2]: 88 nM
Ratio IC50 [3]: 11.5
IC50 [4]: 26 nM
IC50 [5]: 2 nM
Activity [6]: 53%
Ratio IC50 [7]: 13
Ratio IC50 [8]: 44
IC50 [9]: 23 nM
Ratio IC50 [10]: 38.5
SMILES: COC(=O)/C=C/CN1CCc2cc(Nc3ncc(C)c(-c4cnn(C(C)C)c4)n3)ccc2C1
IC50 (L02): 1530 nM
Ratio IC50 (Homo sapiens): 36.3
IC50 (Vero): 2330 nM
IC50 [11]: 2890 nM

SMILES: Cc1ccc(C(=O)CCC(=O)N2CCc3cc(Nc4ncc(C)c(-c5cnn(C(C)C)c5)n4)ccc3C2)cc1
Ratio IC50 (Homo sapiens): 1.7

SMILES: COC(=O)CCCN1CCc2cc(Nc3ncc(C)c(-c4cnn(C(C)C)c4)n3)ccc2C1
Ratio IC50 (Homo sapiens): 1.2
